The values below come from patent US12071408B2, “Multi-targeted tyrosine kinase inhibitors effective in antitumor uses” (Shanghai AB PharmaTech Ltd., priority 2021, dated 2024).

SMILES strings stand for the structures. Several values for one entry are separate records, joined by “and”; a condition that tells them apart may be missing. Equal values may be shown once. Read-outs that look alike come from different tables or passages of the source.

The target in one series is C-MET (Homo sapiens (Human), UniProt P08581). Kind of series: Kinase inhibition, Mobility-Shift Assay. In kind it is biochemical.
The next series deals with FGFR3 (Homo sapiens (Human), UniProt P22607). Kind of series: Kinase inhibition, Mobility-Shift Assay. Format: biochemical. The following applies: read-out: FGFR-3 IC50. How it is done: In this experiment, the inhibitory effects of small molecule inhibitors on 17 kinases were examined by using fluorescent microfluidic mobility shift assay (Mobility-Shift Assay).
2. Compounds were configured in 100% DMSO in a concentration gradient and diluted with buffer to 10% DMSO, and added to 384-well plates. Compounds starting at […] are prepared in 100% DMSO to 25 μM and diluted in a gradient of 10 concentrations, then diluted 10-fold in buffer to make an intermediate dilution of the compound containing 10% DMSO and transferred 5 μl to a 384-well plate. 3. The kinase was diluted to optimal concentration with the following buffers: 50 mM HEPES, pH 7.5, 0.00015% Brij-35, 2 mM DTT (final concentration of enzyme reaction: VEGFR-1 (FLT1): 2 nM; VEGFR-2 (KDR): 1.2 nM; VEGFR-3 (FLT4): 1.5 nM; FGFR1: 2 nM); FGFR2: 9 nM; FGFR3: 8 nM; FGFR4: 10 nM; PDGFRα: 3.5 nM; c-MET: 10 nM; RET: 7 nM; EGFR: 6 nM). Transfer 10 μl into a 384-well plate and incubate with the compounds for 10 min. 4. […] Read the conversion rate with Caliper Reader and calculate the conversion rate as suppression, formula Percent inhIcition=(max−conversion)/(max−min)*100. […]

The target of a further series is ABL (Homo sapiens (Human), UniProt P00519). As to the kind of experiment: Kinase inhibition, Mobility-Shift Assay. In kind it is biochemical.
Series [1] deals with thyroid cancer cell line (TT). As to the kind of experiment: Tumor cell proliferation inhibition (CTG, 72 h). In kind it is cell-based.
In a further series the target is FGFR4 (Homo sapiens (Human), UniProt P22455). As to the kind of experiment: Kinase inhibition, Mobility-Shift Assay. In kind it is biochemical.
The next series deals with EGFR (Homo sapiens (Human), UniProt P00533). Kind of series: Kinase inhibition, Mobility-Shift Assay. Format: biochemical.
Series [2] deals with bladder cancer cell line (RT112/84). As to the kind of experiment: Tumor cell proliferation inhibition (CTG, 72 h). Format: cell-based. The note with it: Homo sapiens.
Series [3] concerns hepatocellular carcinoma cell line (Hep3B 2.1-7). As to the kind of experiment: Tumor cell proliferation inhibition (CTG, 72 h). Format: cell-based. The note with it: Homo sapiens; Hep3B 2.1-7 cells, class; read-out: Hep3B 2.1-7 range of activity (IC50).
The target in a further series is FGFR2 (Homo sapiens (Human), UniProt P21802). Kind of series: Kinase inhibition, Mobility-Shift Assay. Format: biochemical.
Series [4] deals with leukemia cell line (K562). As to the kind of experiment: Tumor cell proliferation inhibition (CTG, 72 h). Format: cell-based. The following applies: Homo sapiens; K562 cells, class; read-out: K562 activity effect range (IC50).
For the next series, the target named is hERG potassium channels (Homo sapiens (Human), UniProt Q12809). Kind of series: hERG in vitro inhibition, whole-cell patch clamp. The note with it: in vitro hERG current inhibition. Format: cell-based.
For series [5], the system named is rats. As to the kind of experiment: 28-day GLP toxicity test. In kind it is in vivo. The note with it: 50, 100, 150 mg/kg once a day by gavage, 28 days. On the procedure:
The 28-day GLP toxicity test also used healthy rats at three doses (50 mg/kg, 100 mg/kg, 150 mg/kg), and the three groups of rats were administered once a day by gavage, and the toxicity of the test substance was evaluated by observing the toxicity response of the experimental animals for 28 consecutive days. […] Therefore, the preferred compound “III-01” designed and synthesized by the present invention not only has better inhibitory activity, but also has better safety and drug-forming properties, which is worthy of further clinical trials and application.

Another series has as its target RET (Homo sapiens (Human), UniProt P07949). Kind of series: Kinase inhibition, Mobility-Shift Assay. In kind it is biochemical.
The next series deals with VEGFR-3 (FLT4) (Homo sapiens (Human), UniProt P35916). Kind of series: Kinase inhibition, Mobility-Shift Assay. Format: biochemical.
Another series concerns the target PDGFRα (Homo sapiens (Human), UniProt P16234). As to the kind of experiment: Kinase inhibition, Mobility-Shift Assay. Format: biochemical.
Series [6] in a line: MTD toxicity test in rats. The following applies: rat, in vivo.
Series [7] has as its system rats. Kind of series: MTD toxicity test in rats. The note with it: rat, in vivo, 300 mg/kg.
The target in a further series is VEGFR-2 (KDR) (Homo sapiens (Human), UniProt P35968). Kind of series: Kinase inhibition, Mobility-Shift Assay. Format: biochemical.
In the next series the target is FGFR1 (Homo sapiens (Human), UniProt P11362). Kind of series: Kinase inhibition, Mobility-Shift Assay. In kind it is biochemical. The note with it: read-out: FGFR-1 IC50.
In a further series the target is VEGFR-1 (FLT1) (Homo sapiens (Human), UniProt P17948). As to the kind of experiment: Kinase inhibition, Mobility-Shift Assay. In kind it is biochemical.
Series [8] has as its system cervical cancer cell line (Hela). As to the kind of experiment: Tumor cell proliferation inhibition (CTG, 72 h). In kind it is cell-based. The note with it: Homo sapiens; Hela cells, class; read-out: Hela activity effect range (IC50).
[9] abbreviates: class, read-out: C-MET range of activity (IC50).
Where [10] appears, read: Homo sapiens, TT cells, class, read-out: TT range of activity (IC50).
Where [11] appears, read: class, read-out: FGFR4 range of activity effects (IC50).
Where [12] appears, read: class, read-out: EGFR range of activity (IC50).
The mark [13] stands for this setting: RT112/84 cells, class, read-out: RT112/84 range of activity (IC50).
Where [14] appears, read: class, read-out: FGFR2 range of activity effects (IC50).
Setting [15] is: TT thyroid cancer cells, 72 h, read-out: TT (uM), inhibitory activity IC50.
Where [16] appears, read: RT112/84 bladder cancer cells, 72 h, read-out: RT112/84 (uM), inhibitory activity IC50.

Sequence of EGFR (P00533 25-1210): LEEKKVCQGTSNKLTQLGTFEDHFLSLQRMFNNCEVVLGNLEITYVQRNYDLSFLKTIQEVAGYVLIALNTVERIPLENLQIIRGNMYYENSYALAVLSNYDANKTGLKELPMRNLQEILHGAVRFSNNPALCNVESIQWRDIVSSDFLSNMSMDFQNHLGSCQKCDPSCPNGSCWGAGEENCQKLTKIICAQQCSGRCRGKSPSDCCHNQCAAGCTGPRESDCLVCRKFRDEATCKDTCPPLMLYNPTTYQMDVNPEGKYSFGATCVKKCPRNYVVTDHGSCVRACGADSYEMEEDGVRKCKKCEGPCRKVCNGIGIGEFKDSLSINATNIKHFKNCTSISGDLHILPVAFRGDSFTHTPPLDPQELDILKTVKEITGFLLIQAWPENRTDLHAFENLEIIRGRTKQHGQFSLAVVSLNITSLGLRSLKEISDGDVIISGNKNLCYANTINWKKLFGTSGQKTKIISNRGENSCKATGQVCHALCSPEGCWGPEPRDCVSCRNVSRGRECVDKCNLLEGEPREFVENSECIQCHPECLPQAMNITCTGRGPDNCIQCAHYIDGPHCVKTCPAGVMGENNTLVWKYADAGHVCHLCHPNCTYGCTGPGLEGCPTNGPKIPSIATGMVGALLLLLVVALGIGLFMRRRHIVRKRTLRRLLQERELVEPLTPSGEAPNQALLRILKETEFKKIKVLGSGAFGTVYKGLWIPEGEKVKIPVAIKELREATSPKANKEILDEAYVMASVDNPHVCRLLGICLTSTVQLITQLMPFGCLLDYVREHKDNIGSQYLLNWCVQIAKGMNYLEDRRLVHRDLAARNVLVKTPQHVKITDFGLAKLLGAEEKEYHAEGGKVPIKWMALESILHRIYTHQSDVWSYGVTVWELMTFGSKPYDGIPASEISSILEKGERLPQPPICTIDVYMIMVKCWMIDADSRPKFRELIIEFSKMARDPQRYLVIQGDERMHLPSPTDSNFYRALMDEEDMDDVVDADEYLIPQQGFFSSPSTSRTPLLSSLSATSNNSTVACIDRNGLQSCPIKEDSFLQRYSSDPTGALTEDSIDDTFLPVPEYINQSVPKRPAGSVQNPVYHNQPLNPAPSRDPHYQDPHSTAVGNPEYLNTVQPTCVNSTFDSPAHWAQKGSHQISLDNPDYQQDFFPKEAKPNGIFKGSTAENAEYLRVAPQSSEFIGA
Sequence of FGFR2 (P21802 22-821): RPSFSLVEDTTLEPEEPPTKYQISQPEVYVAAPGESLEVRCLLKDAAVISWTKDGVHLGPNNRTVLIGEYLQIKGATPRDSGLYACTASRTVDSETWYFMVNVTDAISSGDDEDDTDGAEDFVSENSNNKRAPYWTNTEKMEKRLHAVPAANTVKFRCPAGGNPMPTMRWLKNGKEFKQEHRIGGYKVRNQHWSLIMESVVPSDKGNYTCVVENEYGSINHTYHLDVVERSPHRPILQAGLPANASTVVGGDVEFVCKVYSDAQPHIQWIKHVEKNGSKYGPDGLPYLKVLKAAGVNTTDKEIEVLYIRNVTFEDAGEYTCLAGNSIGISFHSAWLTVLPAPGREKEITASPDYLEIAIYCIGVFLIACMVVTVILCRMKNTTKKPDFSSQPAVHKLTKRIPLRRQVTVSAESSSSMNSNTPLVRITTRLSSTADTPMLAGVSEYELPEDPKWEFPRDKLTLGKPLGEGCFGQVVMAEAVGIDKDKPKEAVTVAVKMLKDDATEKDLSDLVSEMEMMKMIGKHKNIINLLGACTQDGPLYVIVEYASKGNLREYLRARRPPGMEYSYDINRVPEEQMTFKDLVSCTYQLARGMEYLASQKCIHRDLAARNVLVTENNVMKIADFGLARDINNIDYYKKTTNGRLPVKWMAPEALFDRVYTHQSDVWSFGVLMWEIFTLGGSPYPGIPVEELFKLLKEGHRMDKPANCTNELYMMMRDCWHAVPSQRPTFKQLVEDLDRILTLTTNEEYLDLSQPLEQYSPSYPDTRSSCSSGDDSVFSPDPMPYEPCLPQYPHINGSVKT
Sequence of FGFR4 (P22455 22-802): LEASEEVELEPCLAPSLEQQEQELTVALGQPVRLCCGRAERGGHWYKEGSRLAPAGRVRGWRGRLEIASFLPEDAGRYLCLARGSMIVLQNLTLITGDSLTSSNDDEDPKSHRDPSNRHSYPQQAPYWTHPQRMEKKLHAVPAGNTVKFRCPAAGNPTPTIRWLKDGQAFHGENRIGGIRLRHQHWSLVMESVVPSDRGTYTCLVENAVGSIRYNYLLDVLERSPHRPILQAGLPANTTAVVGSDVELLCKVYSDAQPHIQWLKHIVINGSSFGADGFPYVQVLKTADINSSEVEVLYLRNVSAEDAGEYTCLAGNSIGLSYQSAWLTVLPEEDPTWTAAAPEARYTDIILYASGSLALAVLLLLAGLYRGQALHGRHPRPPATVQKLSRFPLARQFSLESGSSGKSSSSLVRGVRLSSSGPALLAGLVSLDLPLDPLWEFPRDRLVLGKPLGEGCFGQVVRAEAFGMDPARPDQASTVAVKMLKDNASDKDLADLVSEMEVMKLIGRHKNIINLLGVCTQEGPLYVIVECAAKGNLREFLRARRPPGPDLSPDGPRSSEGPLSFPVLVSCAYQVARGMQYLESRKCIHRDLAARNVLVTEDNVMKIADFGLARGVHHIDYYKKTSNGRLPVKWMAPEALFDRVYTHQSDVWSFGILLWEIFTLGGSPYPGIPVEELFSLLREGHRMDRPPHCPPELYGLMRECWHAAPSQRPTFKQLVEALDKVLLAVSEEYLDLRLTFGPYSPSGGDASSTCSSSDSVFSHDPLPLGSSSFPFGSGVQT
Sequence of FGFR3 (P22607 23-806): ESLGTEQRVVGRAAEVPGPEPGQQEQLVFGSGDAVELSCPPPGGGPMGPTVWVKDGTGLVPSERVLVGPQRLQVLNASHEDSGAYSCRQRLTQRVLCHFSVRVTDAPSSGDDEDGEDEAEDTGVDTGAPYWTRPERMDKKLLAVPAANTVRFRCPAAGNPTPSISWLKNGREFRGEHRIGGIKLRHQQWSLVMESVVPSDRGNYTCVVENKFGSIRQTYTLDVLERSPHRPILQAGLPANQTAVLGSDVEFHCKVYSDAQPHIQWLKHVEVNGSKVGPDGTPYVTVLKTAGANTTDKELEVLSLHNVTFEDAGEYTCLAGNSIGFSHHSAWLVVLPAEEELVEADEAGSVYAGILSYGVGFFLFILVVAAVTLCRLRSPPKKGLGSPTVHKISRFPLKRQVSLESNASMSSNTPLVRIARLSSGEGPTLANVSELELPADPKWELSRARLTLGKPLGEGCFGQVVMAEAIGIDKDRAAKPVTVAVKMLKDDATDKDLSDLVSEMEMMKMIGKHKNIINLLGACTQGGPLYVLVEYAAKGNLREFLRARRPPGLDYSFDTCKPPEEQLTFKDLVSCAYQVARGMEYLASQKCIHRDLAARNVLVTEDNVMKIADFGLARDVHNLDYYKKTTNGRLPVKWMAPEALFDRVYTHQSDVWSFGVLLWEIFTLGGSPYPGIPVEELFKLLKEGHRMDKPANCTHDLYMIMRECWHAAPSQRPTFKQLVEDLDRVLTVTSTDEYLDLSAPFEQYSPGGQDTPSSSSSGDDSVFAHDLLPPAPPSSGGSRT
Sequence of C-MET (P08581 25-1390): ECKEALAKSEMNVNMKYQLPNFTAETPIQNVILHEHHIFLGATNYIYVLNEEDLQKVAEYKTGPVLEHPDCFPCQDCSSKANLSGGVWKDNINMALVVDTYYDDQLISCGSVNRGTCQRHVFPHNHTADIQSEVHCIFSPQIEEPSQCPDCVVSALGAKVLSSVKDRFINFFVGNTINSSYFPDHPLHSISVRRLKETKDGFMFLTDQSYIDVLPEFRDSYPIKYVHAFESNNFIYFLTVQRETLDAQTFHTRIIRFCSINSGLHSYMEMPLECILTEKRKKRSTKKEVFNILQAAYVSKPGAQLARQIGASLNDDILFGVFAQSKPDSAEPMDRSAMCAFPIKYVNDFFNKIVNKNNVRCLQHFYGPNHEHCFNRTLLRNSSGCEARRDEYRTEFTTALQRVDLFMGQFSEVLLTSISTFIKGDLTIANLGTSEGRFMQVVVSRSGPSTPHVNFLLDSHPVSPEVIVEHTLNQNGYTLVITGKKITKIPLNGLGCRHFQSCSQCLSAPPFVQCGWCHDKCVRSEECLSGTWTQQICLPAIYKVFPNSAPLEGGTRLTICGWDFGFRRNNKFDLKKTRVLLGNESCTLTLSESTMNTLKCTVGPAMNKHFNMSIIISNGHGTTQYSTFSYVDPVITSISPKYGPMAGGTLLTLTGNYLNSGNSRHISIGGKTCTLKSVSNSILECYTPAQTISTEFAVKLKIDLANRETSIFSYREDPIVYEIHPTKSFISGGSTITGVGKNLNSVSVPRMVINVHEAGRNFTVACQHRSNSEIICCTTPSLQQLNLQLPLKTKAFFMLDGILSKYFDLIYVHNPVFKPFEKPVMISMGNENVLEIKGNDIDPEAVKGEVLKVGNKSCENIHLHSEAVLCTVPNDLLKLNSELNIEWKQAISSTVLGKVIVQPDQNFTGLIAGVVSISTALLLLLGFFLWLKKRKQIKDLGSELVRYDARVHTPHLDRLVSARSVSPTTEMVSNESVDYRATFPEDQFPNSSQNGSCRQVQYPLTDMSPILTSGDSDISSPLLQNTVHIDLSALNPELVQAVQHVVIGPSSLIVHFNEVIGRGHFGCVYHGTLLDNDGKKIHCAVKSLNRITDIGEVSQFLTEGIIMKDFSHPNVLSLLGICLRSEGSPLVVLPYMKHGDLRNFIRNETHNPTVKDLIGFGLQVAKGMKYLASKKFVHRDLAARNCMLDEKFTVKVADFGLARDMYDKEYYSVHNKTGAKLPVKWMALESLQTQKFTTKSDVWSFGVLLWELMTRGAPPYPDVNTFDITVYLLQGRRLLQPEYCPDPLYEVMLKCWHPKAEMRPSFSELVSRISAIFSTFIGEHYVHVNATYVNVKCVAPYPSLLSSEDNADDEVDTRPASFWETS

Take `CNC(=O)c1cc(Oc2ccc(NC(=O)Nc3ccc(Cl)c(C(F)(F)F)c3)c(F)c2)ccn1` [Regorafenib, reference compound]: the IC50 at C-MET (setting [9]) was over 100 nM; on C-MET (read-out: C-MET IC50), over 1000 nM; at FGFR3, 62 nM; on ABL, over 500 nM; in series [1] (setting [10]), over 10 µM; on FGFR4 (setting [11]), over 100 nM. Moreover, the IC50 was over 500 nM on FGFR4 (read-out: FGFR-4 IC50), over 100 nM at EGFR (setting [12]), over 1000 nM on EGFR (read-out: EGFR IC50) and 0.2 to 1 µM in series [2] (setting [13]).
As for `COc1cc2nccc(Oc3c(F)cc(NC(=O)NC4CC4)c(Cl)c3F)c2cc1C(N)=O` [III-01], the IC50 is 60 to 100 nM on C-MET (setting [9]); 96 nM on C-MET (read-out: C-MET IC50); under 2500 nM in series [3]; 22 nM on FGFR3; under 30 nM at FGFR2 (setting [14]); 11 nM at FGFR2 (read-out: FGFR-2 IC50). The IC50 in series [4] was 5000 to 10000 nM; against hERG potassium channels, over 30000 nM; at ABL it was 68 nM; on RET, 2.5 nM; at VEGFR-3 (FLT4) it was 1.1 nM; in series [1] (setting [10]), under 5 µM. In addition, the IC50 in series [1] (setting [15]) is 1.5 µM; on FGFR4 (setting [11]), under 30 nM; on FGFR4 (read-out: FGFR-4 IC50) it was 17 nM; on EGFR (setting [12]) it was under 60 nM; at EGFR (read-out: EGFR IC50), 58 nM and 53 nM; at PDGFRα, 7.9 nM. Also, the IC50 on VEGFR-2 (KDR) (class, read-out: KDR activity effect range (IC50)) was under 2 nM; on VEGFR-2 (KDR) (read-out: VEGFR-2 (KDR) IC50), 0.6 nM; on FGFR1, 14 nM; on VEGFR-1 (FLT1), 3.7 nM; in [2] (setting [16]), 0.13 µM; in series [2] (setting [13]), under 0.2 µM. The IC50 in series [8] lay within 5000 to 10000 nM. In addition, the Ames assay result in “Ames assay” is “negative”. Also, the “Autopsy results, 28-day GLP toxicity test” value in the series on rats [5] is reported as “did not reveal any abnormal changes”. For the same compound, the MTD in series [6] (300 mg/kg, rats, read-out: MTD toxicity dose) was 300 mg/kg; in [6] (rats, read-out: MTD toxicity dose), over 300 mg/kg. The “Observation at MTD dose” value with rats [7] is “without any abnormalities such as death”.
Consider `COc1cc2nccc(Oc3ccc(NC(=O)NC4CC4)c(Cl)c3)c2cc1C(N)=O` [Lenvatinib, reference compound], for which the IC50 at C-MET (setting [9]) is over 100 nM; at C-MET (read-out: C-MET IC50) it was over 1000 nM; at FGFR3, 59 nM; on FGFR2 (setting [14]), 30 to 100 nM; on FGFR2 (read-out: FGFR-2 IC50) it was 27 nM; at VEGFR-3 (FLT4) it was 3.2 nM. The IC50 in series [1] (setting [10]) is over 10 µM; in series [1] (setting [15]), over 10 µM; on FGFR4 (setting [11]) it was 30 to 100 nM; on FGFR4 (read-out: FGFR-4 IC50) it was 65 nM; on PDGFRα, 27 nM; on FGFR1 it was 56 nM. The IC50 is 0.29 µM in [2] (setting [16]) and 0.2 to 1 µM in series [2] (setting [13]). In series [6], this compound showed an MTD of 40 mg/kg.
